Reference: US10494404B2, “Quinolinium conjugates of cyclosporin” (priority 2014, dated 2019)

Columns and labels:
[1] = test system: Ca^2+ mediated PT pore formation (CypD KO mitochondria); assay: Calcium retention capacity (CRC) assay, liver mitochondria from CypD knockout mice; type: biochemical, mouse
Procedure: Subcellular fractionation was performed as previously described (Astin et al, 2013). […] At 4° C., the liver was rinsed in PBS to remove excess blood, and any fat and connective tissue was eliminated. PBS was then replaced with isolation buffer containing 1 mM PMSF, and the liver was chopped into pieces (approximately 2 mm in length). Tissue was then homogenized in this solution until no solid matter remained, and then centrifuged at 800G for 10 minutes at 4° C. The nuclear pellet was then discarded, and the post nuclear supernatant retained, and centrifuged at 10300G for another 10 minutes at 4° C. […] Protein levels were quantified using a ThermoScientific BCA protein quantification assay, as per manufacturer's instructions.
Isolated mitochondria were resuspended (500 μg protein/ml) in MSK buffer (75 mM mannitol, 25 mM sucrose, 5 mM potassium phosphate monobasic, 20 mM Tris-HCl, 100 mM KCl, and 0.1% bovine serum albumin, pH 7.4) supplemented with 10 mM succinate, 1 μM rotenone and 1 μM Fluo5N. […] Compounds were incubated for ten minutes before the plate was assayed in a Fluostar Optima plate reader, using Ex/Em filters at 480/520 […]; CaCl2 was injected approximately every 6.5 minutes for 80 minutes (12 total injections, final concentration of 75 μM). […] Percentage inhibition for each [compound] was then calculated as the % of the corresponding value for the untreated condition. […]

[2] = test system: isolated rat liver mitochondria; assay: Mitochondrial functional parameters in isolated liver mitochondria; type: biochemical; conditions: Compound 1 up to 200 nM, CsA up to 1 μM
Procedure: Oxygen consumption was measured using Oroboros Oxygraph-2K as previously described (Astin et al, 2013). Prior to the assay, the Oxygraph chambers were calibrated with Miro5 buffer (0.5 mM EGTA, 3 mM MgCl2.6H2O, 60 mM K-lactobionate, 20 mM taurine, 10 mM KH2PO4, 20 mM HEPES, 110 mM sucrose, 1 g/l BSA (essentially fatty acid free)). Isolated mitochondria were suspended in Miro5 (at 100-200 μg/ml), loaded into the chamber together with substrates (malate, 2 mM; glutamate, 10 mM), and the O2 flow signal was allowed to stabilise to the basal respiration rate (approx. 10 min).
Freshly isolated mouse liver mitochondria were suspended in MSK buffer containing 10 ug/ml rhodamine123 (dequench mode), at a concentration of 500 ug/ml, and plated in an opaque black 96 well plate. Baseline fluorescence was then measured every 60 seconds for 5 minutes in a Fluostar Optima (Ex480/Em520) before manual addition of compounds (concentrations as specified). Fluorescence measurements were continued for 45 minutes until the addition of 2 uM FCCP, followed by a further 10 minutes of fluorescence readings.
Freshly isolated mitochondria were resuspended in MSK buffer (containing 10 mM glutamate and 2 mM malate) at 1 mg/ml and plated in opaque white 96 well plates, or for neuronal assays, neurons were used 9 days after plating at 15000 cells/well. Drugs were added at the concentrations specified, and for mitochondrial assays were incubated for ten minutes before addition of ADP (5 mM), followed by another 45 minutes. For neuronal assays, drugs were added in neurobasal medium and incubated for 60 minutes. Cell Titer Glo reagent was then added, and the plate shaken for 2 minutes in the dark to lyse cells/mitochondria and release ATP. The plates were incubated a further ten minutes and then luminescence values read using an Optima FluoStar.

[3] = test system: T cell proliferative response in the draining auricular lymph node; assay: Oxazolone contact hypersensitivity model, in vivo T cell proliferation; parameters: species or system mouse
Procedure: To identify non-immunosuppressive doses of potential neuroprotective compounds for use in models of MS (Al-Izki et al, 2014) we employed a model using epicutaneous application of the ear skin sensitizer, oxazolone, to induce a T cell proliferative response in the draining auricular lymph node peaking 3 days later (Baker et al, 2011).
The contact sensitiser 4-ethoxymethylene-2-phenyl-2-oxazolin-5-one (oxazolone, OX, Sigma) was dissolved (25 mg/ml) in 4:1 acetone:olive oil (AOO). Mice (n=3 per group) received epicutaneous application of either 25 μl of 2.5% OX or AOO on the dorsum of the ear on day 0 (O'Neill et al, 1992). The draining auricular lymph nodes were removed three days later and the induced proliferative response was assessed as previously described. Briefly, 5×10^5 cells per well were cultured in RPMI-1640 medium with glutamate (Gibco®, Invitrogen Ltd, Paisley UK), supplemented with 0.5 mM sodium, in round-bottomed 96 well plates overnight at 37° C. in a humidified atmosphere of 5% CO2. In the presence of 1 μCi^3H-thymidine (PerkinElmer, Mass., USA) per well. […] Results are expressed as mean±SEM thymidine incorporation counts per minute (CPM)

In the case of `CC[C@@H]1NC(=O)[C@H]([C@H](O)[C@H](C)C/C=C/CCC[n+]2cccc3ccccc32)N(C)C(=O)[C@H](C(C)C)N(C)C(=O)[C@H](CC(C)C)N(C)C(=O)[C@H](CC(C)C)N(C)C(=O)[C@@H](C)NC(=O)[C@H](C)NC(=O)[C@H](CC(C)C)N(C)C(=O)[C@H](C(C)C)NC(=O)[C@H](CC(C)C)N(C)C(=O)CN(C)C1=O` [Compound 1, [Gly-(1S,2R,E)-8-quinolinium-1-hydroxy-2-methyloct-4-ene]^1 CsA], the “effect on CRC” value [1] is reported as “Neither CsA nor Compound 1 had any effect”, the ATP production ([2]; isolated mitochondria with substrates and ADP) is reported as “Neither mitochondrial membrane potential (FIG. 4A,B), oxygen consumption (FIG. 4C, D) and ATP production (FIG. 4E, F) were affected” and the oxygen consumption ([2]; isolated mitochondria, glutamate and malate) is reported as “Neither mitochondrial membrane potential (FIG. 4A,B), oxygen consumption (FIG. 4C, D) and ATP production (FIG. 4E, F) were affected”. For the same compound, the mitochondrial membrane potential ([2]; isolated mitochondria, rhodamine-123) was “Neither mitochondrial membrane potential (FIG. 4A,B), oxygen consumption (FIG. 4C, D) and ATP production (FIG. 4E, F) were affected”, the “effect on T cell response” value ([3]; daily 0.1 mg/kg i.p.) was “had no effect” and the “effect on T cell response” value ([3]; daily 1 mg/kg i.p.) was “had no effect”. The “effect on T cell response” value ([3]; daily 10 mg/kg i.p.) was “inhibited the T cell response”.
